This note sets out measurements from patent US20150313209A1, “SOLUTION FOR PRESERVING VASCULAR CONDUITS” (SOMAHLUTION, LLC, priority 2012, published 2015).

This series in a line: Stability of ascorbic acid and reduced glutathione in solution over time (chromatography with electrospray MS / photo diode array detection). To be noted: stored at room temperature. The class given is physicochemical. As for the experimental part: A second solution and the final formulation from Example 1 were analyzed to evaluate the stability of ascorbic acid and reduced glutathione over a period of time at room temperature. The final formulation was formed by mixing together the first and second solutions and its pH was adjusted to about 7.4. […] The stability of ascorbic acid and the stability of reduced glutathione were determined over a period of time in both solutions. Both the final formulation and the second solution were stored at room temperature. The chromatography method developed and employed for this study separated the ascorbic acid and glutathione reproducibly and without any mutual interference between the components or their decomposition products. Two components were detected using electrospray spectrometry in +ve selected ion monitoring mode. In addition L-Ascorbic acid, and L-glutathione were also detected by photo diode array absorbing in the 190-400 nm range. The integrated chromatographic intensities of each of the component peaks was a measure of its molar quantity in solution analyzed. The pH, conductivity, and osmolalities were also measured for each sample. The stability indicating properties of GALA were evaluated at: 40° C.±2° C./75% RH±5% Relative Humidity (RH). A qualified stability chamber with uniform and constant temperature and relative humidity was used for storing the product containers. The chamber's thermometer and digital readout were recorded daily. Samples received for the proposed stability study were logged and tracked in a Sample Receipt and Storage Log and maintained at 2-8° C. until the commencement of the study. A minimum of twenty one containers of the device from each representative batch of the first and second solutions were placed in the stability chamber maintained at 40° C.±2° C./75% RH±5% RH. This date was recorded as the zero time point. Three containers of each of the first and second solutions were pulled at 0, 5, 9, 15, 30, 50, and 80-day intervals from the stability chamber for testing.

Where [1] appears, read: in the final formulation (first and second solutions mixed) having a pH of about 7.4.
Setting [2] is: in the second solution having a pH of about 3.0.

Turning to `N[C@@H](CCC(=O)N[C@@H](CS)C(=O)NCC(=O)O)C(=O)O` [reduced glutathione, L-glutathione (reduced)], the rate of decay entry under setting [1] was “about 6 mg per day” and the rate of decay result under setting [2] is “about 3 mg per day”.
On the same counts, the results for `O=C1O[C@H]([C@@H](O)CO)C(O)=C1O` [ascorbic acid, L-ascorbic acid] are “about 15 mg per day” and “about 3 mg per day”.
